From patent US11873292B2, “Trans-indoline cyclopropylamine chemical compound, and method for preparation, pharmaceutical composition, and use thereof” (Shanghai Institute of Materia Medica, Chinese Academy of …, priority 2016, dated 2024)

Assays:
Human recombinant LSD1 = Human recombinant LSD1 (Homo sapiens (Human), UniProt O60341); assay: LSD1 in vitro activity assay (LANCE Ultra LSD1 Histone H3-Lysine 4 Demethylase Assay); format: biochemical; settings: LSD1 inhibition
Human recombinant MAOA = Human recombinant MAOA (Homo sapiens (Human), UniProt P21397); assay: MAOA in vitro activity experiment (MAO-Glo); format: biochemical
Sequence of Human recombinant MAOA (P21397 whole entry): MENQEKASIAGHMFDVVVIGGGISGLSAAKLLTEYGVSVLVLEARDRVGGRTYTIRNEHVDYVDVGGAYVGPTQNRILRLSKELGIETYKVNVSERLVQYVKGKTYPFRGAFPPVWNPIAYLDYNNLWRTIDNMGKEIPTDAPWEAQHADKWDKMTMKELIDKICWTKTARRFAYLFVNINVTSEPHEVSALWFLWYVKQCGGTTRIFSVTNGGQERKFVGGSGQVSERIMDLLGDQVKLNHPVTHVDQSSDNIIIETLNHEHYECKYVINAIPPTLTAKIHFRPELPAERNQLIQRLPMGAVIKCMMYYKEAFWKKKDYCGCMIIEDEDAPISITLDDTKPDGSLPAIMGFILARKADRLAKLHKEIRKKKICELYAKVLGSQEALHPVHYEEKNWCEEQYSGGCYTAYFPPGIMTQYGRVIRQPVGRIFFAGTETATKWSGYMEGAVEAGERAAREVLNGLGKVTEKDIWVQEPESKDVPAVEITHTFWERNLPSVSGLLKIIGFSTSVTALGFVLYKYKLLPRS

human recombinant MAOB = human recombinant MAOB (Homo sapiens (Human), UniProt P27338); assay: MAOB in vitro activity experiment (MAO-Glo); format: biochemical
Sequence of human recombinant MAOB (P27338 whole entry): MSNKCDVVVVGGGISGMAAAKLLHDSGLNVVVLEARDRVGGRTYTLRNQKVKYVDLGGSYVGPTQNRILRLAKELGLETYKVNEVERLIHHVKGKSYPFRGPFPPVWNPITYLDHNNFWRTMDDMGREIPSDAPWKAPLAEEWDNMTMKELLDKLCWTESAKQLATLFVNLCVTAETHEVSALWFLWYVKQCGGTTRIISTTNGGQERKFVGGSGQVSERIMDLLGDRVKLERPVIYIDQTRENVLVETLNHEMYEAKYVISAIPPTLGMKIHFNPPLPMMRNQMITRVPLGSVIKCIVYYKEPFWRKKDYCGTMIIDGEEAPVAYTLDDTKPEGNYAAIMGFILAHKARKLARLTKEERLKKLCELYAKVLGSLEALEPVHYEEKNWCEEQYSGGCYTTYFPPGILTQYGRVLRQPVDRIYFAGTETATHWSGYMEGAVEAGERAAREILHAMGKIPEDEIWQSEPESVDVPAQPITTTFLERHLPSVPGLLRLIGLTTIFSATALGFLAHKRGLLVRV

## N[C@@H]1C[C@H]1c1ccc2c(c1)CCN2S(=O)(=O)c1ccccc1 (relative stereo) [Compound A1, Trans-2-(1-(phenylsulfonyl)indolin-5-yl)cyclopropylamine]
other
  melting point: 190 to 193 °C
Human recombinant LSD1
  IC50: 1790 ± 88.4 nM

## CC(C)(C)OC(=O)N1CCC(CN[C@@H]2C[C@H]2c2ccc3c(c2)CCN3S(=O)(=O)c2ccccc2)CC1 (relative stereo) [Compound A27, Trans-tert-butyl 4-((2-(1-(phenylsulfonyl)indolin-5-yl)cyclopropylamino)methyl)piperidine-1-carboxylate]
Human recombinant MAOA
  IC50: > 100000 nM
other
  melting point: 60 to 61 °C
Human recombinant LSD1
  IC50: 71.3 ± 4.3 nM
Human recombinant MAOB
  IC50: > 100000 nM

## O=C(OCc1ccccc1)N1CCC(CN[C@@H]2C[C@H]2c2ccc3c(c2)CCN3S(=O)(=O)c2ccccc2)CC1 (relative stereo) [Compound A28, Trans-benzyl 4-((2-(1-(phenylsulfonyl)indolin-5-yl)cyclopropylamino)methyl)piperidine-1-carboxylate]
other
  melting point: 90 to 92 °C
Human recombinant LSD1
  IC50: 265 ± 80.8 nM

## CC(C)(C)OC(=O)N1CCC(C(=O)N[C@@H]2C[C@H]2c2ccc3c(c2)CCN3S(=O)(=O)c2ccccc2)CC1 (relative stereo) [Compound A29, Trans-tert-butyl 4-(2-(1-(phenylsulfonyl)indolin-5-yl)cyclopropylcarbamoyl)piperidine-1-carboxylate]
other
  melting point: 146 to 148 °C
Human recombinant LSD1
  IC50: 1690 ± 449 nM

## O=S(=O)(c1ccc(C(F)(F)F)cc1)N1CCc2cc([C@@H]3C[C@H]3NCC3CCNCC3)ccc21 (relative stereo) [Compound A34, trans-N-(piperidin-4-ylmethyl)-2-(1-(4-(trifluoromethyl)benzenesulfonyl)indolin-5-yl)cyclopropylamine]
Human recombinant MAOA
  IC50: > 100000 nM
other
  melting point: 217 to 221 °C
Human recombinant LSD1
  IC50: 43.3 ± 5.09 nM
Human recombinant MAOB
  IC50: > 100000 nM

## O=C(c1ccc(-c2ccccc2)cc1)N1CCc2cc([C@@H]3C[C@H]3NCC3CCNCC3)ccc21 (relative stereo) [Compound A47, Trans-biphenyl-4-yl(5-(2-(piperidin-4-ylmethylamino)cyclopropyl)indolin-1-yl)methanone]
Human recombinant MAOA
  IC50: > 100000 nM
other
  melting point: 179 to 180 °C
Human recombinant LSD1
  IC50: 10.2 ± 1.59 nM
Human recombinant MAOB
  IC50: 7330 ± 110 nM

## O=C(c1cccc(C(F)(F)F)c1)N1CCc2cc([C@@H]3C[C@H]3NCC3CCNCC3)ccc21 (relative stereo) [Compound A48, Trans-(5-(2-(piperidin-4-ylmethylamino)cyclopropyl)indolin-1-yl)(3-(trifluoromethyl)phenyl) methanone]
Human recombinant MAOA
  IC50: > 100000 nM
other
  melting point: 230 to 232 °C
Human recombinant LSD1
  IC50: 25.57 ± 0.11 nM
Human recombinant MAOB
  IC50: 42600 ± 780 nM

## O=C(OCc1ccccc1)N1CCc2cc([C@@H]3C[C@H]3NCC3CCNCC3)ccc21 (relative stereo) [Compound A50, Trans-benzyl-5-(2-(piperidin-4-ylmethylamino)cyclopropyl)Indoline-1-carboxylate]
Human recombinant MAOA
  IC50: > 100000 nM
other
  melting point: 215 to 218 °C
Human recombinant LSD1
  IC50: 35.3 ± 3.48 nM
Human recombinant MAOB
  IC50: 10700 ± 1220 nM

## CC(C)(C)OC(=O)c1ccc(CN2CCC(CNC3CC3c3ccc4c(c3)CCN4S(=O)(=O)c3ccccc3)CC2)cc1 (stereo not drawn) [Compound A25, Trans-tert-butyl 4-((4-(2-(1-(phenylsulfonyl))indolin-5-yl)cyclopropylamino)methyl)piperidin-1-yl)methyl) benzoate]
other
  melting point: 62 to 65 °C
Human recombinant LSD1
  IC50: 534 ± 384 nM

## O=C(O)c1ccc(CN2CCC(CNC3CC3c3ccc4c(c3)CCN4S(=O)(=O)c3ccccc3)CC2)cc1 (stereo not drawn) [Compound A26, Trans-4-((4-(2-(1-(phenylsulfonyl))indolin-5-yl)cyclopropylamino)methyl)piperidin-1-yl) methyl)benzoic acid]
other
  melting point: 190 to 192 °C
Human recombinant LSD1
  IC50: 461 ± 31.9 nM
